Source: PubChem BioAssay AID330 (DTP/NCI, 2004)
Values joined by “and” are separate entries in the source; they are usually repeats but may differ in a detail not shown here. Identical values can stand only once. Toxic doses and inconclusive results are not listed.

Test system: P388 leukemia ip, CD2F1 mice, survival T/C
Test: NCI In Vivo Anticancer Drug Screen. Data for tumor model P388 Leukemia (intraperitoneal) in CD2F1 (CDF1) mice
Settings: endpoint: median survival time, higher = longer survival
Summary of the method: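 Mice carrying the transplanted tumor received test compound or vehicle. Survival was recorded in each group, and the value is the treated-group measurement divided by that of the vehicle-treated control group.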

[1] = dose: 50.0 mg/kg/injection, schedule: Q01DX005 (ip), vehicle: saline with Tween-80
[2] = dose: 100.0 mg/kg/injection, schedule: Q01DX005 (ip), vehicle: saline with Tween-80
[3] = dose: 200.0 mg/kg/injection, schedule: Q01DX005 (ip), vehicle: saline with Tween-80
[4] = dose: 12.5 mg/kg/injection, schedule: Q01DX009 (ip), vehicle: Klucel (hydroxypropylcellulose) (HPC)
[5] = dose: 25.0 mg/kg/injection, schedule: Q01DX009 (ip), vehicle: Klucel (hydroxypropylcellulose) (HPC)
[6] = dose: 100.0 mg/kg/injection, schedule: Q04DX002 (ip), vehicle: Klucel (hydroxypropylcellulose) (HPC)
[7] = dose: 200.0 mg/kg/injection, schedule: Q04DX002 (ip), vehicle: Klucel (hydroxypropylcellulose) (HPC)
[8] = dose: 400.0 mg/kg/injection, schedule: Q04DX002 (ip), vehicle: Klucel (hydroxypropylcellulose) (HPC)
[9] = dose: 50.0 mg/kg/injection, schedule: Q01DX009 (ip), vehicle: saline with Tween-80
[10] = dose: 100.0 mg/kg/injection, schedule: Q01DX009 (ip), vehicle: saline with Tween-80
[11] = dose: 200.0 mg/kg/injection, schedule: Q01DX009 (ip), vehicle: saline with Tween-80
[12] = dose: 25.0 mg/kg/injection, schedule: Q01DX009 (ip), vehicle: saline
[13] = dose: 50.0 mg/kg/injection, schedule: Q01DX009 (ip), vehicle: saline
[14] = dose: 50.0 mg/kg/injection, schedule: Q01DX009 (ip), vehicle: Klucel (hydroxypropylcellulose) (HPC)
[15] = dose: 100.0 mg/kg/injection, schedule: Q01DX009 (ip), vehicle: Klucel (hydroxypropylcellulose) (HPC)
[16] = dose: 50.0 mg/kg/injection, schedule: Q01DX005 (ip), vehicle: Klucel (hydroxypropylcellulose) (HPC)
[17] = dose: 100.0 mg/kg/injection, schedule: Q01DX005 (ip), vehicle: Klucel (hydroxypropylcellulose) (HPC)
[18] = dose: 200.0 mg/kg/injection, schedule: Q01DX005 (ip), vehicle: Klucel (hydroxypropylcellulose) (HPC)

## COc1c(C)c2c(c(C)c1Cl)Oc1c(C)c(O)c(Cl)c(C)c1C(=O)O2
dose: 1.12 mg/kg/injection, schedule: Q01DX009 (ip), vehicle: Klucel (hydroxypropylcellulose) (HPC)
  T/C: 112 % of control
dose: 2.25 mg/kg/injection, schedule: Q01DX009 (ip), vehicle: Klucel (hydroxypropylcellulose) (HPC)
  T/C: 105 % of control
dose: 4.5 mg/kg/injection, schedule: Q01DX009 (ip), vehicle: Klucel (hydroxypropylcellulose) (HPC)
  T/C: 108 % of control
dose: 9.0 mg/kg/injection, schedule: Q01DX009 (ip), vehicle: Klucel (hydroxypropylcellulose) (HPC)
  T/C: 96 % of control
dose: 18.0 mg/kg/injection, schedule: Q01DX009 (ip), vehicle: Klucel (hydroxypropylcellulose) (HPC)
  T/C: 102 % of control

## COc1cc2c(c(OC)c1OC)-c1ccc(SC)c(=O)cc1[C@@H](NC(=O)NCCCl)CC2
dose: 1.5 mg/kg/injection, schedule: Q01DX009 (ip), vehicle: water
  T/C: 110 % of control
dose: 6.0 mg/kg/injection, schedule: Q01DX009 (ip), vehicle: water
  T/C: 150 % of control
dose: 12.0 mg/kg/injection, schedule: Q01DX009 (ip), vehicle: water
  T/C: 155 % of control
dose: 13.5 mg/kg/injection, schedule: Q01DX009 (ip), vehicle: water
  T/C: 150 % of control and 163 % of control

## Oc1ccc(N=C2N=c3c(c4ccccc4c4ccccc34)=N2)c2ccccc12
dose: 25.0 mg/kg/injection, schedule: Q01DX005 (ip), vehicle: saline with Tween-80
  T/C: 98 % of control
[1]
  T/C: 100 % of control
[2]
  T/C: 100 % of control
[3]
  T/C: 107 % of control

## Nc1ccc(-c2ccc3ccccc3n2)cc1
dose: 3.13 mg/kg/injection, schedule: Q01DX009 (ip), vehicle: Klucel (hydroxypropylcellulose) (HPC)
  T/C: 103 % of control
dose: 6.25 mg/kg/injection, schedule: Q01DX009 (ip), vehicle: Klucel (hydroxypropylcellulose) (HPC)
  T/C: 101 % of control
[4]
  T/C: 106 % of control
[5]
  T/C: 88 % of control

## Cc1ccnc(NS(=O)(=O)c2ccc(N=Cc3c4ccccc4nc4cc(Cl)ccc34)cc2)n1
dose: 60.0 mg/kg/injection, schedule: Q01DX005 (ip), vehicle: saline with Tween-80
  T/C: 96 % of control
dose: 120.0 mg/kg/injection, schedule: Q01DX005 (ip), vehicle: saline with Tween-80
  T/C: 93 % of control
dose: 240.0 mg/kg/injection, schedule: Q01DX005 (ip), vehicle: saline with Tween-80
  T/C: 96 % of control

## Cc1ccc(-n2c(-c3ccc(-n4c(C)nc5ccc(Br)cc5c4=O)cc3)n[nH]c2=S)cc1
[6]
  T/C: 98 % of control
[7]
  T/C: 106 % of control
[8]
  T/C: 100 % of control

## C=C1C(=O)OC2CC1C(OC(C)=O)CC1(C)OC1CCC1(C)OC1CCC2(C)O (stereo not given)
dose: 6.26 mg/kg/injection, schedule: Q01DX009 (ip), vehicle: Klucel (hydroxypropylcellulose) (HPC)
  T/C: 119 % of control
[4]
  T/C: 117 % of control
[5]
  T/C: 123 % of control

## CC(=O)NC(=O)Cc1ccccc1
[6]
  T/C: 94 % of control
[7]
  T/C: 95 % of control
[8]
  T/C: 97 % of control

## CC(C)(C)c1ccc(C2=NNC(C(F)(F)F)=NN2)cc1
[9]
  T/C: 110 % of control
[10]
  T/C: 104 % of control
[11]
  T/C: 119 % of control

## CCOC(=O)C(Cc1ccc([N+](=O)[O-])cc1)N1C(=O)c2ccccc2C1=O (stereo not given)
dose: 50.0 mg/kg/injection, schedule: Q01DX009 (ip), vehicle: distilled water + Tween-80 + alcohol
  T/C: 98 % of control
dose: 100.0 mg/kg/injection, schedule: Q01DX009 (ip), vehicle: distilled water + Tween-80 + alcohol
  T/C: 89 % of control
dose: 200.0 mg/kg/injection, schedule: Q01DX009 (ip), vehicle: distilled water + Tween-80 + alcohol
  T/C: 92 % of control

## CCOC(=O)c1ccc[nH]1
dose: 25.0 mg/kg/injection, schedule: Q01DX009 (ip), vehicle: saline with Tween-80
  T/C: 104 % of control
[9]
  T/C: 108 % of control
[10]
  T/C: 112 % of control
[11]
  T/C: 103 % of control

## O=c1[nH]cnc2ccc3cn[nH]c3c12
[1]
  T/C: 100 % of control
[2]
  T/C: 105 % of control
[3]
  T/C: 106 % of control

## CC(C)(C)OC(=O)NCCCC(NC(=O)OCc1ccccc1)C(=O)O (stereo not given)
[1]
  T/C: 103 % of control
[2]
  T/C: 99 % of control
[3]
  T/C: 95 % of control

## NC(=O)CC1(O)CCCCC1
[12]
  T/C: 100 % of control
[13]
  T/C: 100 % of control
dose: 100.0 mg/kg/injection, schedule: Q01DX009 (ip), vehicle: saline
  T/C: 100 % of control

## CCCCCCCCOP(=O)(N1CC1)N1CC1
dose: 22.0 mg/kg/injection, schedule: Q04DX003 (ip), vehicle: saline
  T/C: 154 % of control
dose: 33.0 mg/kg/injection, schedule: Q04DX003 (ip), vehicle: saline
  T/C: 222 % of control
dose: 50.0 mg/kg/injection, schedule: Q04DX003 (ip), vehicle: saline
  T/C: 159 % of control
dose: 75.0 mg/kg/injection, schedule: Q04DX003 (ip), vehicle: saline
  T/C: 118 % of control

## O=C1C(=C2C=CN(CCCN3CCCC3)C=C2)C(=O)c2ccccc21
[14]
  T/C: 90 % of control
[15]
  T/C: 96 % of control
dose: 200.0 mg/kg/injection, schedule: Q01DX009 (ip), vehicle: Klucel (hydroxypropylcellulose) (HPC)
  T/C: 95 % of control

## Cc1nn2c(-c3snnc3C)nnc2s1
dose: 100.0 mg/kg/injection, schedule: Q01DX001 (ip), vehicle: Klucel (hydroxypropylcellulose) (HPC)
  T/C: 99 % of control
dose: 200.0 mg/kg/injection, schedule: Q01DX001 (ip), vehicle: Klucel (hydroxypropylcellulose) (HPC)
  T/C: 100 % of control
dose: 400.0 mg/kg/injection, schedule: Q01DX001 (ip), vehicle: Klucel (hydroxypropylcellulose) (HPC)
  T/C: 100 % of control

## Cc1c([N+](=O)[O-])cc(N)cc1S(=O)(=O)O
[16]
  T/C: 96 % of control
[17]
  T/C: 96 % of control
[18]
  T/C: 93 % of control

## COc1ccc(-n2c(-c3ccc(-n4c(C)nc5ccc(I)cc5c4=O)cc3)n[nH]c2=S)cc1
[6]
  T/C: 103 % of control
[7]
  T/C: 98 % of control
[8]
  T/C: 98 % of control

## COc1cc(/C=C(\C#N)C(N)=O)cc(Br)c1O
[1]
  T/C: 100 % of control
[2]
  T/C: 103 % of control
[3]
  T/C: 100 % of control

## COc1cc(CCCOC2OC(COC3OCC(O)C(O)C3O)C(O)C(O)C2O)cc2cc(-c3ccc4c(c3)OCO4)oc12 (stereo not given)
dose: 2.34 mg/kg/injection, schedule: Q01DX005 (ip), vehicle: Klucel (hydroxypropylcellulose) (HPC)
  T/C: 95 % of control
dose: 4.68 mg/kg/injection, schedule: Q01DX005 (ip), vehicle: Klucel (hydroxypropylcellulose) (HPC)
  T/C: 94 % of control
dose: 9.37 mg/kg/injection, schedule: Q01DX005 (ip), vehicle: Klucel (hydroxypropylcellulose) (HPC)
  T/C: 98 % of control
dose: 18.75 mg/kg/injection, schedule: Q01DX005 (ip), vehicle: Klucel (hydroxypropylcellulose) (HPC)
  T/C: 94 % of control

## N#CC(C#N)C1C=C/C(=N\O)C1 (stereo not given)
dose: 12.5 mg/kg/injection, schedule: Q01DX009 (ip), vehicle: saline
  T/C: 99 % of control
[12]
  T/C: 101 % of control
[9]
  T/C: 109 % of control
[13]
  T/C: 102 % of control

## CSc1cccc(NC(=O)Nc2ccc(S(N)(=O)=O)cc2)c1
[14]
  T/C: 92 % of control
[15]
  T/C: 87 % of control

## Nc1nc2nc(/N=N/SCCC(=O)O)[nH]c2c(=O)[nH]1
[1]
  T/C: 105 % of control
[2]
  T/C: 108 % of control

## CCC1COC(Nc2cccc3c2CCCC3)=N1 (stereo not given)
dose: 100.0 mg/kg/injection, schedule: Q01DX001 (ip), vehicle: saline with Tween-80
  T/C: 95 % of control
dose: 200.0 mg/kg/injection, schedule: Q01DX001 (ip), vehicle: saline with Tween-80
  T/C: 90 % of control

## N#Cc1ccc(-c2ccccc2)nc1Cl
dose: 25.0 mg/kg/injection, schedule: Q01DX005 (ip), vehicle: Klucel (hydroxypropylcellulose) (HPC)
  T/C: 98 % of control
[16]
  T/C: 98 % of control
[17]
  T/C: 93 % of control
[18]
  T/C: 102 % of control
